Assay results reported in US7989451B2, “Tricyclic 1,2,4-triazine oxides and compositions for therapeutic use in cancer treatments” (Auckland Uniservices Limited, priority 2005, dated 2011).
Where two headings read alike, the source gives them in different places.

Tests used:
[1] = system: human cervical carcinoma SiHa; experiment: Proliferation assay (IC50) under aerobic and hypoxic conditions, SiHa; type: cell-based; conditions: for IC50: Homo sapiens, 4 h drug exposure, sulforhodamine B; for HCR: hypoxic cytotoxicity ratio = IC50 aerobic/IC50 hypoxic
Method: (§1) Compounds representative of the invention were evaluated under both aerobic and hypoxic conditions in a proliferation assay (IC50), using two cell lines: human colon carcinoma HT29, and human cervical carcinoma SiHa (Table 1).
(§2) Drug exposures were performed in 96-well plates (Nunc) either using a 37 DC humidified incubator (20% O2, 5% CO2) or in the incubator compartment (37° C.) of an anaerobic chamber (Shell Lab) where palladium catalyst scrubbed gas (90% N2, 5% H2, 5% CO2) ensures severe anoxia (<0.001% O2). For each experiment, compounds were simultaneously tested under both oxic and hypoxic conditions and included TPZ as an internal control. An 8-methyl-5-nitroquinoline derivative, SN 24349, known to require very low oxygen concentrations for bioactivation (Siim et al., Br. J. Cancer 1994, 70, 596-603) was used to confirm that strict hypoxia was present during the experiment. […] Cell cultures were grown in αMEM (Gibco) containing 5% heat inactivated FCS and maintained in exponential growth phase. For each individual experiment an appropriate number of cells were seeded (HT29=1100; SiHa=1500) into wells in αMEM+10% FCS+10 mM added glucose+100 μM 2′-deoxycytidine (2′dCyd), and allowed to attach for 2-3 h. High glucose (final concentration 17 mM) and the presence of 2′-dCyd minimize hypoxia-induced cell cycle arrest. Cultures were then exposed to drugs, using 3-fold serial dilutions in duplicate, for a further 4 h. Subsequently cells were washed free of compound using complete media (without glucose/2′-dCyd) and allowed to grow for 5 (oxic) or 6 (anoxic) days. Plates were stained with sulforhodamine B as described previously (Wilson et al., J. Med. Chem. 1989, 32, 31-38) and IC50 values determined.
(§3) HCR=Hypoxic cytotoxicity ratio is defined as the ratio of IC50 values under aerobic and hypoxic conditions (IC50 aerobic/IC50 hypoxic).

[2] = system: human colon carcinoma HT29; experiment: Proliferation assay (IC50) under aerobic and hypoxic conditions, HT29; type: cell-based; conditions: for IC50: Homo sapiens, 4 h drug exposure, sulforhodamine B; for HCR: hypoxic cytotoxicity ratio = IC50 aerobic/IC50 hypoxic
Method: as §1, §2, §3

[3] = hypoxic (anaerobic chamber, <0.001% O2), then 6 days growth, read-out: IC50 (μM) hypoxic
[4] = oxic (20% O2), then 5 days growth, read-out: IC50 (μM) oxic
[5] = HT-29, hypoxic (anaerobic chamber, <0.001% O2), then 6 days growth, read-out: IC50 (μM) hypoxic
[6] = HT-29, oxic (20% O2), then 5 days growth, read-out: IC50 (μM) oxic

Row | IC50 [1, 3] [µM] | IC50 [1, 4] [µM] | melting point | IC50 [2, 5] [µM] | IC50 [2, 6] [µM] | SMILES | HCR [1] | HCR [2]
1 | 8.8 ± 1.7 | 357 ± 35 | 158 to 160 °C | 21 ± 8 | 385 ± 14 | [O-][n+]1nc(NCCCN2CCOCC2)[n+]([O-])c2cc3c(cc21)CCC3 [Compound 61, N-[3-(4-Morpholinyl)propyl]-7,8-dihydro-6H-indeno[5,6-e][1,2,4]triazin-3-amine 1,4-Dioxide] | 44 ± 12 | 20 ± 5
2 | 5.3 ± 0.4 | 239 ± 22 | 140 to 141 °C | 14.2 | 325 ± 70 | [O-][n+]1nc(NCCCCN2CCOCC2)[n+]([O-])c2cc3c(cc21)CCC3 [Compound 63, N-[4-(4-Morpholinyl)butyl]-7,8-dihydro-6H-indeno[5,6-e][1,2,4]triazin-3-amine 1,4-Dioxide] | 46 ± 8 | 28
3 | 1 ± 0.5 | 80 ± 7 | 179 to 181 °C | 2.4 ± 0.4 | 401 ± 236 | [O-][n+]1cn[n+]([O-])c2cc3c(cc21)CCC3 [Compound 65, 7,8-Dihydro-6H-indeno[5,6-e][1,2,4]triazine 1,4-Dioxide] | 155 ± 117 | 226 ± 153
4 | 37 ± 2 | 326 ± 7 | 140 to 142 °C | 48 ± 8 | 289 ± 3 | CCc1n[n+]([O-])c2cc3c(cc2[n+]1[O-])CCC3 [Compound 68, 3-Ethyl-7,8-dihydro-6H-indeno[5,6-e][1,2,4]triazine 1,4-Dioxide] | 8.8 ± 0.2 | 6.0 ± 0.05
5 | 6.9 ± 3.3 | 680 ± 95 | 153 to 155 °C | 15 ± 3 | 874 ± 119 | [O-][n+]1nc(CCCO)[n+]([O-])c2cc3c(cc21)CCC3 [Compound 71, 3-(1,4-Dioxido-7,8-dihydro-6H-indeno[5,6-e][1,2,4]triazin-3-yl)-1-propanol] | 114 ± 31 | 57 ± 1
6 | 1.4 ± 0.3 | 123 ± 17 | 149 to 151 °C | 3.5 ± 0.4 | 185 ± 27 | CC1Cc2cc3c(cc2C1)[n+]([O-])c(NCCN(C)C)n[n+]3[O-] (stereo not shown) [Compound 97, N^1,N^1-Dimethyl-N^2-(7-methyl-1,4-dioxido-7,8-dihydro-6H-indeno[5,6-e][1,2,4]triazin-3-yl)-1,2-ethanediamine] | 97 ± 33 | 54 ± 14
7 | 8.4 ± 3.2 | 415 ± 133 | 161 to 163 °C | 19 ± 6 | 459 ± 93 | CC1Cc2cc3c(cc2C1)[n+]([O-])c(NCCCN1CCOCC1)n[n+]3[O-] (stereo not shown) [Compound 99, 7-Methyl-N-[3-(4-morpholinyl)propyl]-7,8-dihydro-6H-indeno[5,6-e][1,2,4]triazin-3-amine 1,4-Dioxide] | 50 ± 3 | 25 ± 2
8 | 1.7 ± 0.2 | 226 ± 14 | 119 to 121 °C | 2.9 ± 0.1 | 210 ± 38 | CC1Cc2cc3c(cc2C1)[n+]([O-])c(CCCN1CCOCC1)n[n+]3[O-] (stereo not shown) [Compound 104, 7-Methyl-3-[3-(4-morpholinyl)propyl]-7,8-dihydro-6H-indeno[5,6-e][1,2,4]triazine 1,4-Dioxide] | 134 ± 4 | 72 ± 13
9 | 8 ± 0.4 | 831 ± 30 | 130 to 131 °C | 13 ± 1.3 | 1040 ± 28 | CC1Cc2cc3c(cc2C1)[n+]([O-])c(CCCO)n[n+]3[O-] (stereo not shown) [Compound 105, 3-(7-Methyl-1,4-dioxido-7,8-dihydro-6H-indeno[5,6-e][1,2,4]triazin-3-yl)-1-propanol] | 104 ± 4 | 80 ± 2
10 | 6.5 ± 0.2 | 314 ± 60 | 157 to 158 °C | 17.1 | 774 ± 8 | CCc1n[n+]([O-])c2cc3c(cc2[n+]1[O-])CC(CO)C3 (stereo not shown) [Compound 136, (3-Ethyl-1,4-dioxido-7,8-dihydro-6H-indeno[5,6-e][1,2,4]triazin-7-yl)methanol] | 48 ± 8 | 45
11 | 1.8 ± 0.2 | 377 | 112 to 114 °C | 2.4 ± 0.1 | 294 ± 34 | [O-][n+]1nc(CCCN2CCOCC2)[n+]([O-])c2cc3c(cc21)CC(CO)C3 (stereo not shown) [Compound 141, {3-[3-(4-Morpholinyl)propyl]-1,4-dioxido-7,8-dihydro-6H-indeno[5,6-e][1,2,4]triazin-7-yl}methanol] | 206 | 121 ± 14
12 | 2.4 ± 0.1 | 147 ± 37 | 164 to 165 °C | 4.8 ± 1.3 | 154 ± 51 | CCc1n[n+]([O-])c2cc3c(cc2[n+]1[O-])CC(CN1CCOCC1)C3 (stereo not shown) [Compound 144, 3-Ethyl-7-(4-morpholinylmethyl)-7,8-dihydro-6H-indeno[5,6-e][1,2,4]triazine 1,4-Dioxide] | 62 ± 19 | 31 ± 2
13 | 2.9 ± 0.4 | 283 | 152 to 155 °C | 7.7 ± 1.2 | 717 ± 320 | CCc1n[n+]([O-])c2cc3c(cc2[n+]1[O-])CC(CCO)C3 (stereo not shown) [Compound 162, 2(3-Ethyl-1,4-dioxido-7,8-dihydro-6H-indeno[5,6-e][1,2,4]triazin-7-yl)ethanol] | 86 | 102 ± 57
14 | 1.2 ± 0.1 | 99 ± 32 | 131 to 133 °C | 5.2 ± 0.9 | 250 ± 119 | CN(C)CCNc1n[n+]([O-])c2cc3c(cc2[n+]1[O-])CCCCC3 [Compound 189, N^1-(1,4-Dioxido-7,8,9,10-tetrahydro-6H-cyclohepta[g][1,2,4]benzotriazin-3-yl)-N^2,N^2-dimethyl-1,2-ethanediamine] | 88 ± 32 | 54 ± 32
15 | 0.3 ± 0.02 | 36 ± 10 | 149 to 151 °C | 2.4 ± 0.1 | 61 ± 6 | CN(C)CCNc1n[n+]([O-])c2cc3c(cc2[n+]1[O-])CCO3 [Compound 198, N^1-(1,4-Dioxido-6,7-dihydrofuro[3,2-g][1,2,4]benzotriazin-3-yl)-N^2,N^2-dimethyl-1,2-ethanediamine] | 87 ± 9 | 23 ± 0.2
16 | 3.4 ± 0.8 | 90 ± 24 | 145 to 148 °C | 22 ± 4.2 | 177 ± 80 | [O-][n+]1nc(NCCCN2CCOCC2)[n+]([O-])c2cc3c(cc21)OCC3 [Compound 200, N-[3-(4-Morpholinyl)propyl]-6,7-dihydrofuro[3,2-g][1,2,4]benzotriazin-3-amine 1,4-Dioxide] | 28 ± 6 | 8 ± 3
17 | 23 | > 500 | > 300 °C (dec.) | 117 | 495 | Nc1n[n+]([O-])c2cc3c(cc2[n+]1[O-])OCC3 [Compound 205, 7,8-Dihydrofuro[2,3-g][1,2,4]benzotriazin-3-amine 1,4-Dioxide] |  | 4
18 | 1.9 ± 0.2 | 176 ± 70 | 186 to 189 °C | 5.2 ± 0.3 | 258 ± 207 | CN(C)CCNc1n[n+]([O-])c2cc3c(cc2[n+]1[O-])OCC3 [Compound 208, N^1-(1,4-Dioxido-7,8-dihydrofuro[2,3-g][1,2,4]benzotriazin-3-yl)-N^2,N^2-dimethyl-1,2-ethanediamine] | 128 ± 3 | 46 ± 36
19 | 3.4 ± 0.7 | 376 ± 10 | 187 to 190 °C | 9.6 ± 3.6 | 708 ± 178 | CCN(CC)CCNc1n[n+]([O-])c2cc3c(cc2[n+]1[O-])OCC3 [Compound 210, N^1-(1,4-Dioxido-7,8-dihydrofuro[2,3-g][1,2,4]benzotriazin-3-yl)-N^2,N^2-diethyl-1,2-ethanediamine] | 122 ± 25 | 113 ± 53
20 | 29.4 ± 4.2 | 355 ± 240 | 186 to 189 °C | 48.6 ± 12.2 | 225 ± 136 | [O-][n+]1nc(NCCCN2CCOCC2)[n+]([O-])c2cc3c(cc21)CCO3 [Compound 212, N-[3-(4-Morpholinyl)propyl]-7,8-dihydrofuro[2,3-g][1,2,4]benzotriazin-3-amine 1,4-Dioxide] | 14 ± 10 | 6 ± 4
